{"source": "paper PMC5557808", "about": "(Nature Communications, 2017)", "molecular_target": "T1, Leucine aminopeptidase (AP) (Sus scrofa, UniProt P15145)", "T1 construct": "Leucine aminopeptidase (AP; Mw = 280 kDa) from porcine kidney; purchased Sigma-Aldrich Chemie, Schnelldorf, Germany; host or cells: porcine kidney (tissue-derived)", "T1 sequence (P15145 1-963)": "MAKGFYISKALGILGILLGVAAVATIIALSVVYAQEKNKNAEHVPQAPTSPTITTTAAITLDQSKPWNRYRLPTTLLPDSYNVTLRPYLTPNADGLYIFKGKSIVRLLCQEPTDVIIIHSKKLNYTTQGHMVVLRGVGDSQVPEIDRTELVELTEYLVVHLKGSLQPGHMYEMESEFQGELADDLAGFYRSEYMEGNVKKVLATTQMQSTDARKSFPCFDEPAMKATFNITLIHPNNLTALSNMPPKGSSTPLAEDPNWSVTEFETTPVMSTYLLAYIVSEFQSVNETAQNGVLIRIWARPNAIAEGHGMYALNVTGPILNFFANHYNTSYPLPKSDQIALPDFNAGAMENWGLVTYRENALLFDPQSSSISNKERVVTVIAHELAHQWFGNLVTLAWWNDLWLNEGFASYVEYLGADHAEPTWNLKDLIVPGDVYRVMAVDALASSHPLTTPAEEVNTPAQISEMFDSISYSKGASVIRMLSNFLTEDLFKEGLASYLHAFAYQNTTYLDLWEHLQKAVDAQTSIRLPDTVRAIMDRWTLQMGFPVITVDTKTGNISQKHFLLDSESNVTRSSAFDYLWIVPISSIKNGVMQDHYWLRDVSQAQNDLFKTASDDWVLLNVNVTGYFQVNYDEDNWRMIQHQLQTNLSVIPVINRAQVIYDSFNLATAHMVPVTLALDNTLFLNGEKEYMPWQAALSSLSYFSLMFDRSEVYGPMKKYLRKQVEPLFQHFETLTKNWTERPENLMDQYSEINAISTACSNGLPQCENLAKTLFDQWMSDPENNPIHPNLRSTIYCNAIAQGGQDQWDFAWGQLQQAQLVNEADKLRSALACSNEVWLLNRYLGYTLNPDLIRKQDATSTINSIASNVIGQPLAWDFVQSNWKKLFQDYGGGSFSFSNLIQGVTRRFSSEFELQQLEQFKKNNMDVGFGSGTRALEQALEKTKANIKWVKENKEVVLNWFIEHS", "experiment": "Aminopeptidase (AP) incubation", "type": "biochemical, porcine", "conditions": "AP 3.1 nM (0.87 µg/mL), 30 min, 37 °C, after 22 h with 1800 ng/mL MMP-8; LC-MS", "protocol": "Leucine aminopeptidase (AP; Mw = 280 kDa) from porcine kidney dissolved in AP buffer (50 mM Tris-HCl, 1 mM CaCl2, and 150 mM NaCl at pH 7.0) was used. L-leucine-p-nitroanilide (0.125 mg/mL) was used as control substrate. For AP digestion, 1 mg of purified lyophilized peptide was diluted in 2 mL AP buffer resulting in a final concentration of 0.5 mg/mL substrate. To evaluate the impact of AP concentration on peptide cleavage, AP was added at concentrations of 0 (negative control), 0.87, 8.7, 39, and 78 µg/mL and the samples were incubated at 37 °C for 1 h. For analysis of the AP incubation time, an AP concentration of 0.87 µg/mL was used and analyzed after 10, 20 min and 1, 2, 3, and 6 h. To stop the enzyme activity, samples were kept at 95 °C for 15 min. Afterwards, HPLC analyses were performed (as described in the Supplementary Information) to analyze the relative decrease of the main peak as compared to the negative control. Further details are given in the Supplementary Methods.\nMMP -9) in a concentration of 0.4 ng/µL (50 µL) were mixed with MMP -8 buffer (37 µL), detection enz yme (5 µL) and substrate (8µL; all fro m Q uic kZ yme® ). The acti vi t y was meas ur ed for 12 hours in inter vals of 10 minutes. […]\nAminopeptidase (AP) incubation\nLeucine A minopeptidase (AP; M w = 280 kD a) from porcine kidney dissolved in AP buffer (50 mM Tris-HCl, 1 mM CaCl2 and 150 mM NaCl at pH 7.0) was used. L-leu cin e-p-nitroan ilide (0.125mg/ mL) was used as control substr at e. […] Fo r anal ysis of the impact of AP incubation time, the identical conditions were used (AP concentration of 0.87 µg / mL (and analyzed after 10, 20 minutes and 1, 2, 3 and 6 hours ). To stop the enzymatic activit y, sa mp les wer e kept at 95 °C for 15 minutes. A fterwards, H PLC analys es were p erformed (as descr ibed) to an al yze th e relative d ecr eas e of the ma i n pea k as co mp ared to the negative control (see […]\nV(B)/(V(A)+V(B)) = 5 % to 90 % over 10 min, V(B)/(V(A)+V(B)) = 90 % for 5 min, V(B)/(V(A)+V(B)) = 90 % to 5 % over 3 min. […] UV detection was measured at 254 nm. […]", "note": "Where a SMILES comes first, the peptide text is derived from it. [ ]: non-standard residue; d: D form. The star is where a group is joined. X1 = CC[N+](CC)(CC(=O)Nc1c(C)cccc1C)Cc1cccc(C(=O)*)c1; Aha = [N-]=[N+]=NCC[C@H](N)C(=O)O"}
{"smiles": "CC[C@H](C)[C@H](NC(=O)CNC(=O)[C@H](CCC(N)=O)NC(=O)[C@@H]1CCCN1C(=O)CNC(=O)c1cccc(C[N+](CC)(CC)CC(=O)Nc2c(C)cccc2C)c1)C(=O)N[C@@H](C)C(=O)NCC(=O)N[C@@H](CCC(N)=O)C(=O)N[C@@H](CCN=[N+]=[N-])C(=O)N[C@@H](CCC(N)=O)C(=O)O", "note": "[ID #1c] (X1-GPQGIAGQ[Aha]Q-OH)", "values": [{"measurement": "effect of additional AP incubation after complete MMP-8 cleavage", "value": "no difference"}]}
